≈ marks a conversion by molar mass, not a printed value.
Tests used:
Test in all cases: minimal inhibitory concentration, two-fold agar dilution
Assay type in all cases: cell-based
[1] = test system: Proteus mirabilis ATCC 25933; conditions: ATCC25933, Muller-Hinton agar, 37°C, 20 hours, read-out: MIC values against the standard strains
Description: (§1) These MIC values were taken by employing a two-fold dilution method: that is, two-fold serial dilutions of each of the test compounds were made and dispersed in a Muller-Hinton agar medium; 2µl of the standard test strain which had the 10⁷ CFU(Colony Forming Unit) per ml was inoculated on the medium; and these were incubated at 37°C for 20 hours.

[2] = test system: Enterobacter cloacae ATCC 27508; conditions: ATCC27508, Muller-Hinton agar, 37°C, 20 hours, read-out: MIC values against the standard strains
Description: as §1

[3] = test system: Pseudomonas aeruginosa ATCC 25619; conditions: ATCC25619, Muller-Hinton agar, 37°C, 20 hours, read-out: MIC values against the standard strains
Description: as §1

[4] = test system: Citrobacter freundii ATCC 8090; conditions: ATCC8090, Muller-Hinton agar, 37°C, 20 hours, read-out: MIC values against the standard strains
Description: as §1

[5] = test system: Salmonella typhimurium ATCC 14028; conditions: Salmonella enterica; Muller-Hinton agar; 37°C; 20 hours; read-out: MIC values against the standard strains
Description: as §1

[6] = test system: Staphylococcus aureus ATCC 10537; conditions: ATCC10537, Muller-Hinton agar, 37°C, 20 hours, read-out: MIC values against the standard strains
Description: as §1

[7] = test system: Escherichia coli ATCC 10536; conditions: ATCC10536, Muller-Hinton agar, 37°C, 20 hours, read-out: MIC values against the standard strains
Description: as §1

[8] = test system: Shigella flexneri ATCC 11836; conditions: ATCC11836, Muller-Hinton agar, 37°C, 20 hours, read-out: MIC values against the standard strains
Description: as §1

[9] = test system: Acinetobacter calcoaceticus ATCC 15473; conditions: ATCC15473, Muller-Hinton agar, 37°C, 20 hours, read-out: MIC values against the standard strains
Description: as §1

[10] = test system: Enterobacter aerogenes ATCC 29751; conditions: Klebsiella aerogenes, ATCC29751; Muller-Hinton agar; 37°C; 20 hours; read-out: MIC values against the standard strains
Description: as §1

[11] = test system: Proteus vulgaris ATCC 6059; conditions: ATCC6059, Muller-Hinton agar, 37°C, 20 hours, read-out: MIC values against the standard strains
Description: as §1

[12] = test system: Serratia marcescens ATCC 27117; conditions: ATCC27117, Muller-Hinton agar, 37°C, 20 hours, read-out: MIC values against the standard strains
Description: as §1

[13] = test system: Bacillus cereus ATCC 11778; conditions: ATCC11778, Muller-Hinton agar, 37°C, 20 hours, read-out: MIC values against the standard strains
Description: as §1

[14] = test system: Bacillus megaterium ATCC 9885; conditions: Priestia megaterium, ATCC9885; Muller-Hinton agar; 37°C; 20 hours; read-out: MIC values against the standard strains
Description: as §1

[15] = test system: Streptococcus faecalis ATCC 29212; conditions: Enterococcus faecalis, ATCC29212; Muller-Hinton agar; 37°C; 20 hours; read-out: MIC values against the standard strains
Description: as §1

[16] = test system: Shigella sonnei ATCC 11060; conditions: ATCC11060, Muller-Hinton agar, 37°C, 20 hours, read-out: MIC values against the standard strains
Description: as §1

[17] = test system: Staphylococcus aureus ATCC 6538p; conditions: ATCC6538P, Muller-Hinton agar, 37°C, 20 hours, read-out: MIC values against the standard strains
Description: as §1

[18] = test system: Micrococcus luteus ATCC 9341; conditions: ATCC9341, Muller-Hinton agar, 37°C, 20 hours, read-out: MIC values against the standard strains
Description: as §1

[19] = test system: Klebsiella pneumoniae ATCC 10031; conditions: ATCC10031, Muller-Hinton agar, 37°C, 20 hours, read-out: MIC values against the standard strains
Description: as §1

[20] = test system: Escherichia coli ATCC 25922; conditions: ATCC25922, Muller-Hinton agar, 37°C, 20 hours, read-out: MIC values against the standard strains
Description: as §1

[21] = test system: Providencia rettgeri ATCC 9250; conditions: ATCC9250, Muller-Hinton agar, 37°C, 20 hours, read-out: MIC values against the standard strains
Description: as §1

[22] = test system: Pseudomonas aeruginosa ATCC 10145; conditions: ATCC10145, Muller-Hinton agar, 37°C, 20 hours, read-out: MIC values against the standard strains
Description: as §1

[23] = test system: Pseudomonas aeruginosa ATCC 27853; conditions: ATCC27853, Muller-Hinton agar, 37°C, 20 hours, read-out: MIC values against the standard strains
Description: as §1

[24] = test system: Morganella morganii ATCC 8076h; conditions: ATCC8076H, Muller-Hinton agar, 37°C, 20 hours, read-out: MIC values against the standard strains
Description: as §1

[25] = test system: Staphylococcus epidermidis ATCC 12228; conditions: ATCC12228, Muller-Hinton agar, 37°C, 20 hours, read-out: MIC values against the standard strains
Description: as §1

C[n+]1cc(-c2ccccc2)c(N)nc1SCC1=C(C(=O)[O-])N2C(=O)[C@@H](NC(=O)/C(=N\OC(C)(C)C(=O)O)c3csc(N)n3)[C@H]2SC1 [Example 21, 7-[(Z)-2-(2-aminothiazol-4-yl)-2-(carboxyprop-2-oxyimino)acetamido]-3-(4-amino-5-phenyl-1-methylpyrimidinium-2-yl)thiomethyl-3-cephem-4-carboxylate]
MIC [1]: 0.25 µg/mL (≈ 0.365 µM)
MIC [2]: 0.016 µg/mL (≈ 0.0234 µM)
MIC [3]: 2 µg/mL (≈ 2.92 µM)
MIC [4]: 0.13 µg/mL (≈ 0.19 µM)
MIC [5]: 0.5 µg/mL (≈ 0.73 µM)
MIC [6]: 1 µg/mL (≈ 1.46 µM)
MIC [7]: 0.13 µg/mL (≈ 0.19 µM)
MIC [8]: 0.063 µg/mL (≈ 0.092 µM)
MIC [9]: 32 µg/mL (≈ 46.7 µM)
MIC [10]: 2 µg/mL (≈ 2.92 µM)
MIC [11]: 0.25 µg/mL (≈ 0.365 µM)
MIC [12]: 0.5 µg/mL (≈ 0.73 µM)
MIC [13]: 128 µg/mL (≈ 187 µM)
MIC [14]: 0.13 µg/mL (≈ 0.19 µM)
MIC [15]: > 128 µg/mL
MIC [16]: 0.13 µg/mL (≈ 0.19 µM)
MIC [17]: 4 µg/mL (≈ 5.84 µM)
MIC [18]: 0.5 µg/mL (≈ 0.73 µM)
MIC [19]: 0.031 µg/mL (≈ 0.0453 µM)
MIC [20]: 0.13 µg/mL (≈ 0.19 µM)
MIC [21]: ≤ 8 ng/mL
MIC [22]: 16 µg/mL (≈ 23.4 µM)
MIC [23]: 8 µg/mL (≈ 11.7 µM)
MIC [24]: ≤ 8 ng/mL
MIC [25]: 2 µg/mL (≈ 2.92 µM)

CCO/N=C(\C(=O)N[C@@H]1C(=O)N2C(C(=O)[O-])=C(CSc3nc(N)c4ccccc4[n+]3C)CS[C@H]12)c1csc(N)n1 [Example 29, 7-[(Z)-2-(2-aminothiazol-4-yl)-2-(ethoxyimino)acetamido]-3-(4-amino-1-methylbenzo-[5,6,e]pyrimidinium-2-yl)thiomethyl-3-cephem-4-carboxylate]
MIC [1]: 0.5 µg/mL (≈ 0.832 µM)
MIC [2]: ≤ 0.008 µg/mL
MIC [3]: 4 µg/mL (≈ 6.66 µM)
MIC [4]: 0.13 µg/mL (≈ 0.216 µM)
MIC [5]: 0.5 µg/mL (≈ 0.832 µM)
MIC [6]: 0.13 µg/mL (≈ 0.216 µM)
MIC [7]: 0.13 µg/mL (≈ 0.216 µM)
MIC [8]: 0.063 µg/mL (≈ 0.105 µM)
MIC [9]: 16 µg/mL (≈ 26.6 µM)
MIC [10]: 0.25 µg/mL (≈ 0.416 µM)
MIC [11]: 0.5 µg/mL (≈ 0.832 µM)
MIC [12]: 0.5 µg/mL (≈ 0.832 µM)
MIC [13]: 16 µg/mL (≈ 26.6 µM)
MIC [14]: 0.063 µg/mL (≈ 0.105 µM)
MIC [15]: 16 µg/mL (≈ 26.6 µM)
MIC [16]: 0.25 µg/mL (≈ 0.416 µM)
MIC [17]: 0.13 µg/mL (≈ 0.216 µM)
MIC [18]: 0.016 µg/mL (≈ 0.0266 µM)
MIC [19]: ≤ 0.008 µg/mL
MIC [20]: 0.13 µg/mL (≈ 0.216 µM)
MIC [21]: ≤ 8 ng/mL
MIC [22]: 16 µg/mL (≈ 26.6 µM)
MIC [23]: 16 µg/mL (≈ 26.6 µM)
MIC [24]: ≤ 8 ng/mL
MIC [25]: 0.031 µg/mL (≈ 0.0516 µM)

CCO/N=C(\C(=O)N[C@@H]1C(=O)N2C(C(=O)[O-])=C(CSc3nc(N)cc[n+]3N)CS[C@H]12)c1csc(N)n1 [Example 42, 7-[(Z)-2-(2-aminothiazol-4-yl)-2-(ethoxyimino)acetamido]-3-(1,4-diaminopyrimidinium-2-yl)thiomethyl-3-cephem-4-carboxylate]
MIC [1]: 1 µg/mL (≈ 1.81 µM)
MIC [2]: ≤ 0.008 µg/mL
MIC [3]: 0.5 µg/mL (≈ 0.906 µM)
MIC [4]: 0.063 µg/mL (≈ 0.114 µM)
MIC [5]: 0.5 µg/mL (≈ 0.906 µM)
MIC [6]: 0.13 µg/mL (≈ 0.236 µM)
MIC [7]: 0.031 µg/mL (≈ 0.0562 µM)
MIC [8]: 0.25 µg/mL (≈ 0.453 µM)
MIC [9]: 4 µg/mL (≈ 7.25 µM)
MIC [10]: 0.13 µg/mL (≈ 0.236 µM)
MIC [11]: 1 µg/mL (≈ 1.81 µM)
MIC [12]: 0.5 µg/mL (≈ 0.906 µM)
MIC [13]: 32 µg/mL (≈ 58 µM)
MIC [14]: 0.063 µg/mL (≈ 0.114 µM)
MIC [15]: 8 µg/mL (≈ 14.5 µM)
MIC [16]: 0.25 µg/mL (≈ 0.453 µM)
MIC [17]: 0.13 µg/mL (≈ 0.236 µM)
MIC [18]: ≤ 0.008 µg/mL
MIC [19]: ≤ 0.008 µg/mL
MIC [20]: 0.031 µg/mL (≈ 0.0562 µM)
MIC [21]: 63 ng/mL (≈ 0.114 µM)
MIC [22]: 8 µg/mL (≈ 14.5 µM)
MIC [23]: 4 µg/mL (≈ 7.25 µM)
MIC [24]: 250 ng/mL (≈ 0.453 µM)
MIC [25]: 0.031 µg/mL (≈ 0.0562 µM)

C[C@@H](O/N=C(\C(=O)N[C@@H]1C(=O)N2C(C(=O)[O-])=C(CSc3nc(N)c(N)c(N)[n+]3C)CS[C@H]12)c1csc(N)n1)C(=O)O [Example 82-b, 7-[(Z)-2-(2-aminothiazol-4-yl)-2-{1-carboxyeth-1-oxyimino}acetamido]-3-(4,5,6-triamino-1-methylpyrimidinium-2-yl)thiomethyl-3-cephem-4-carboxylate]
MIC [1]: 0.031 µg/mL (≈ 0.0496 µM)
MIC [2]: ≤ 0.008 µg/mL
MIC [3]: 1 µg/mL (≈ 1.6 µM)
MIC [4]: 0.063 µg/mL (≈ 0.101 µM)
MIC [5]: 0.063 µg/mL (≈ 0.101 µM)
MIC [6]: 2 µg/mL (≈ 3.2 µM)
MIC [7]: 0.031 µg/mL (≈ 0.0496 µM)
MIC [8]: 0.031 µg/mL (≈ 0.0496 µM)
MIC [9]: 8 µg/mL (≈ 12.8 µM)
MIC [10]: 0.5 µg/mL (≈ 0.8 µM)
MIC [11]: 0.031 µg/mL (≈ 0.0496 µM)
MIC [12]: 0.063 µg/mL (≈ 0.101 µM)
MIC [13]: 128 µg/mL (≈ 205 µM)
MIC [14]: 0.5 µg/mL (≈ 0.8 µM)
MIC [15]: > 128 µg/mL
MIC [17]: 8 µg/mL (≈ 12.8 µM)
MIC [18]: 0.5 µg/mL (≈ 0.8 µM)
MIC [19]: 0.031 µg/mL (≈ 0.0496 µM)
MIC [20]: 0.031 µg/mL (≈ 0.0496 µM)
MIC [21]: ≤ 8 ng/mL
MIC [22]: 2 µg/mL (≈ 3.2 µM)
MIC [23]: 1 µg/mL (≈ 1.6 µM)
MIC [24]: ≤ 8 ng/mL
MIC [25]: 2 µg/mL (≈ 3.2 µM)

CC[C@@H](O/N=C(\C(=O)N[C@@H]1C(=O)N2C(C(=O)[O-])=C(CSc3nc(N)cc[n+]3N)CS[C@H]12)c1csc(N)n1)C(=O)O [Example 88-b, 7-[(Z)-2-(2-aminothiazol-4-yl)-2-{(R)-1-carboxyprop-1-oxyimino}acetamido]-3-(1,4-diaminopyrimidinium-2-yl)thiomethyl-3-cephem-4-carboxylate]
MIC [2]: 0.016 µg/mL (≈ 0.0262 µM)
MIC [3]: 1 µg/mL (≈ 1.64 µM)
MIC [4]: 0.063 µg/mL (≈ 0.103 µM)
MIC [5]: 0.25 µg/mL (≈ 0.41 µM)
MIC [6]: 4 µg/mL (≈ 6.56 µM)
MIC [7]: 0.063 µg/mL (≈ 0.103 µM)
MIC [8]: 0.031 µg/mL (≈ 0.0508 µM)
MIC [9]: 8 µg/mL (≈ 13.1 µM)
MIC [10]: 1 µg/mL (≈ 1.64 µM)
MIC [12]: 0.25 µg/mL (≈ 0.41 µM)
MIC [13]: 128 µg/mL (≈ 210 µM)
MIC [14]: 1 µg/mL (≈ 1.64 µM)
MIC [15]: > 128 µg/mL
MIC [16]: 0.063 µg/mL (≈ 0.103 µM)
MIC [17]: 4 µg/mL (≈ 6.56 µM)
MIC [18]: 1 µg/mL (≈ 1.64 µM)
MIC [19]: 0.031 µg/mL (≈ 0.0508 µM)
MIC [20]: 0.031 µg/mL (≈ 0.0508 µM)
MIC [21]: ≤ 8 ng/mL
MIC [22]: 2 µg/mL (≈ 3.28 µM)
MIC [23]: 2 µg/mL (≈ 3.28 µM)
MIC [24]: ≤ 8 ng/mL
MIC [25]: 2 µg/mL (≈ 3.28 µM)
